Assay results reported in PubChem BioAssay (NCI).
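Cultured in 96-well plates, cells were exposed to test compound for 48 hours across five concentrations. Definition used: TGI = concentration required for complete inhibition of growth.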

What was measured:
Test in all cases: NCI-60 cell line screen, 48 h
[1] = system: A498 renal
[2] = system: MCF7 breast
[3] = system: NCI-H226 lung
[4] = system: OVCAR-3 ovarian
[5] = system: OVCAR-8 ovarian
[6] = system: PC-3 prostate
[7] = system: SF-295 CNS
[8] = system: SF-539 CNS
[9] = system: SK-OV-3 ovarian
[10] = system: SN12C renal
[11] = system: SNB-75 CNS
[12] = system: TK-10 renal
[13] = system: UACC-62 melanoma

O=S(=O)(CCC[C@H]1[C@@H](CCOCc2ccccc2)C2CCCN1O2)c1ccccc1 (some centres undefined) was tested, and the TGI [1] was greater than 100 µM, the TGI [2] was greater than 100 µM and the TGI [3] was greater than 100 µM. For the same molecule, the TGI [4] was greater than 100 µM, the TGI [5] was greater than 100 µM and the TGI [6] was greater than 100 µM. For the same molecule, the TGI [7] was greater than 100 µM, the TGI [8] was greater than 100 µM and the TGI [9] was greater than 100 µM. The TGI [10] was greater than 100 µM, the TGI [11] was greater than 100 µM and the TGI [12] was greater than 100 µM. It also gave a TGI [13] greater than 100 µM.

Molecule C(#CC1(Nc2ccccc2)CCN(Cc2ccccc2)CC1)C1(Nc2ccccc2)CCN(Cc2ccccc2)CC1 has a TGI [1] greater than 46.4 µM, a TGI [2] greater than 56.2 µM and a TGI [3] greater than 56.2 µM. For the same molecule, the TGI [4] was greater than 97.1 µM, the TGI [5] was 53.5 µM and the TGI [6] was 36.5 µM. It also gave a TGI [7] greater than 56.2 µM, a TGI [8] of 34.9 µM and a TGI [9] of 13.1 µM. The TGI [10] was greater than 56.2 µM, the TGI [11] was 29.7 µM and the TGI [12] was 39.4 µM. It also gave a TGI [13] of 21.4 µM.

With O=C(CN=C(CN(c1ccccc1)c1ccccc1)Oc1ccc(Cl)cc1Cl)n1ccnc1 the TGI [1] was greater than 100 µM, the TGI [2] was greater than 100 µM and the TGI [3] was greater than 100 µM. For the same molecule, the TGI [4] was greater than 100 µM, the TGI [5] was greater than 100 µM and the TGI [6] was greater than 100 µM. For the same molecule, the TGI [7] was greater than 100 µM, the TGI [8] was greater than 100 µM and the TGI [9] was greater than 100 µM. The TGI [10] was greater than 100 µM, the TGI [11] was greater than 100 µM and the TGI [12] was greater than 100 µM. For the same molecule, the TGI [13] was greater than 100 µM.

In the case of O=C1/C(=C/c2ccc(O)c(O)c2)CC/C1=C\c1ccc(O)c(O)c1, the TGI [1] is reported as 63.2 µM, the TGI [2] is reported as 22.3 µM and the TGI [3] is reported as 25.8 µM. For the same molecule, the TGI [4] was 32 µM, the TGI [5] was greater than 87.2 µM and the TGI [6] was greater than 100 µM. For the same molecule, the TGI [7] was greater than 100 µM, the TGI [8] was 9.64 µM and the TGI [9] was greater than 60.2 µM. For the same molecule, the TGI [10] was greater than 79.5 µM, the TGI [11] was greater than 80.1 µM and the TGI [12] was greater than 100 µM. For the same molecule, the TGI [13] was 26 µM.

With Cc1cccc(C)c1N=Nc1ccc(O)c(CN(C)C)c1 the TGI [1] was greater than 100 µM, the TGI [2] was greater than 100 µM and the TGI [3] was greater than 100 µM. For the same molecule, the TGI [4] was greater than 100 µM, the TGI [5] was greater than 100 µM and the TGI [6] was greater than 100 µM. It also gave a TGI [7] greater than 100 µM, a TGI [8] greater than 100 µM and a TGI [9] greater than 100 µM. For the same molecule, the TGI [10] was greater than 100 µM, the TGI [11] was greater than 100 µM and the TGI [12] was greater than 100 µM. The TGI [13] was 64.6 µM.

CN1CC2=C(NC(=S)NC2c2ccccc2Cl)/C(=C/c2ccccc2Cl)C1 (centres undefined) gave a TGI [1] greater than 100 µM, a TGI [2] greater than 100 µM and a TGI [3] greater than 100 µM. For the same molecule, the TGI [4] was greater than 100 µM, the TGI [5] was greater than 100 µM and the TGI [6] was greater than 100 µM. The TGI [7] was greater than 100 µM, the TGI [8] was greater than 100 µM and the TGI [9] was greater than 100 µM. It also gave a TGI [10] greater than 100 µM, a TGI [11] of 23.8 µM and a TGI [12] greater than 100 µM. The TGI [13] was greater than 100 µM.

With CC(C(=O)n1ccnc1)N1c2ccccc2Sc2ccccc21 (centres undefined) the TGI [1] was greater than 100 µM, the TGI [2] was greater than 100 µM and the TGI [3] was greater than 100 µM. The TGI [4] was greater than 100 µM, the TGI [5] was greater than 100 µM and the TGI [6] was greater than 100 µM. For the same molecule, the TGI [7] was greater than 100 µM, the TGI [8] was greater than 100 µM and the TGI [9] was greater than 100 µM. It also gave a TGI [10] greater than 100 µM, a TGI [11] greater than 100 µM and a TGI [12] greater than 100 µM. The TGI [13] was greater than 100 µM.

Work on COC(=O)Cn1c(=O)oc2nc(-c3ccccc3)cc(C(F)(F)F)c21 yielded a TGI [1] greater than 100 µM, a TGI [2] greater than 100 µM and a TGI [3] greater than 100 µM. The TGI [4] was greater than 100 µM, the TGI [5] was greater than 100 µM and the TGI [6] was greater than 100 µM. It also gave a TGI [7] greater than 100 µM, a TGI [8] greater than 100 µM and a TGI [9] greater than 100 µM. It also gave a TGI [10] greater than 100 µM, a TGI [11] greater than 100 µM and a TGI [12] greater than 100 µM. The TGI [13] was greater than 100 µM.

CC1(C)CCCCCCCCCC2CC2CCC(C)(C)C1=O (centres undefined) showed a TGI [1] greater than 100 µM, a TGI [2] of 30 µM and a TGI [3] of 31.2 µM. It also gave a TGI [4] of 25.9 µM, a TGI [5] of 74.5 µM and a TGI [6] of 70.9 µM. The TGI [7] was 33.9 µM, the TGI [8] was 44.3 µM and the TGI [9] was greater than 100 µM. The TGI [10] was 35.7 µM, the TGI [11] was 71.1 µM and the TGI [12] was 46 µM. For the same molecule, the TGI [13] was greater than 100 µM.

Cc1ccsc1C(=S)Nc1ccc(Cl)c(/C=N/OC(C)C)c1 gave a TGI [1] greater than 100 µM, a TGI [2] of 62.6 µM and a TGI [3] greater than 100 µM. The TGI [4] was greater than 100 µM, the TGI [5] was greater than 100 µM and the TGI [6] was greater than 100 µM. The TGI [7] was greater than 100 µM, the TGI [8] was greater than 100 µM and the TGI [9] was greater than 100 µM. The TGI [10] was greater than 100 µM, the TGI [11] was greater than 100 µM and the TGI [12] was greater than 100 µM. For the same molecule, the TGI [13] was greater than 100 µM.

CN(C)CC1CCC/C(=C\c2ccccc2)C1=O (centres undefined) gave a TGI [1] of 31.2 µM, a TGI [2] of 2.18 µM and a TGI [3] of 8.26 µM. The TGI [4] was 3.75 µM, the TGI [5] was 14.7 µM and the TGI [6] was 21 µM. The TGI [7] was 35.2 µM, the TGI [8] was 14.3 µM and the TGI [9] was 34 µM. For the same molecule, the TGI [10] was 18.5 µM, the TGI [11] was 26.7 µM and the TGI [12] was 7.85 µM. It also gave a TGI [13] of 20.2 µM.

Work on O=C(Nc1cccc(C(=O)NCCCO)c1)/C(=C/c1ccccc1)NC(=O)c1ccccc1 yielded a TGI [1] greater than 100 µM, a TGI [2] greater than 100 µM and a TGI [3] greater than 100 µM. It also gave a TGI [4] greater than 100 µM, a TGI [5] greater than 100 µM and a TGI [6] greater than 100 µM. It also gave a TGI [7] greater than 100 µM, a TGI [8] greater than 100 µM and a TGI [9] greater than 100 µM. The TGI [10] was greater than 100 µM, the TGI [11] was greater than 100 µM and the TGI [12] was greater than 100 µM. It also gave a TGI [13] greater than 100 µM.

CCC12C=CCN3CCC4(c5cc(C(c6ccc(OC)cc6)C6Cc7ccccc7N6)c(OC)cc5N(C)C4C(O)(C(=O)OC)C1O)C32 (centres undefined) was tested, and the TGI [1] was 80.3 µM, the TGI [2] was 28.3 µM and the TGI [3] was greater than 100 µM. For the same molecule, the TGI [4] was 94.9 µM, the TGI [5] was greater than 100 µM and the TGI [6] was greater than 100 µM. It also gave a TGI [7] greater than 100 µM, a TGI [8] of 78.4 µM and a TGI [9] greater than 100 µM. It also gave a TGI [10] greater than 100 µM, a TGI [11] of 33.7 µM and a TGI [12] of 66.3 µM. The TGI [13] was 31.4 µM.
